Assay results from paper PMC6812009, “Covalent Aurora A regulation by the metabolic integrator coenzyme A” (Redox Biology, 2019).

Key:
Assay in all cases: Kinase profiling screen (radioactive filter-binding assay)
Type in all cases: biochemical
PIM3 = PIM3 (Homo sapiens, UniProt Q86V86); conditions: 100 μM compound, 20 μM ATP; read-out: Kinase activity, % of activity in the absence of inhibitor
Protocol: (§1) Profiling of 117 protein kinases with CoA, dpCoA and ADP was carried out at the International Centre for Protein Kinase Profiling at the University of Dundee. Each compound was tested in vitro, in duplicate, at 100 μM final concentration using recombinant kinases, model substrates and optimal concentrations of ATP. Bacterially expressed full-length His-Aurora A was used to determine the IC50 value for CoA (in the presence or absence of DTT), dpCoA, ADP and desulfo-CoA. The assay was performed in the presence of 5 μM competing ATP. To examine whether the inhibitory effect of CoA on Aurora A is modulated by TPX2, IC50 values for CoA were also generated in the presence and absence of 1 μg TPX2 (residues 1–43) fragment.

NEK2α = target: T1, NEK2α (Homo sapiens, UniProt P51955); conditions: 100 μM compound, 50 μM ATP; read-out: Kinase activity, % of activity in the absence of inhibitor
T1 sequence (P51955 1-445): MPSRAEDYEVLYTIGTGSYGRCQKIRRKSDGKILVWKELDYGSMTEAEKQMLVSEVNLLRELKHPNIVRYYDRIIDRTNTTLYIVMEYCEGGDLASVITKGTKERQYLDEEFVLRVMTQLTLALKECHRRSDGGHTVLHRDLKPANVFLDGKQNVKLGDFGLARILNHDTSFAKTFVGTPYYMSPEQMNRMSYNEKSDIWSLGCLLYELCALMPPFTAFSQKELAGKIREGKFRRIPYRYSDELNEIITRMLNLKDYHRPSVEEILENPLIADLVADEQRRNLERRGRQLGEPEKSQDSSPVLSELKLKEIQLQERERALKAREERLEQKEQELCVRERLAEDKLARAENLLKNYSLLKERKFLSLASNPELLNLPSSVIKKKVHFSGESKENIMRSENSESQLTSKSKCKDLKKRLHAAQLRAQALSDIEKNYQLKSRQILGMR
Protocol: as §1

LKB1 = target: T2, LKB1 (Homo sapiens, UniProt Q15831); conditions: 100 μM compound, 20 μM ATP; read-out: Kinase activity, % of activity in the absence of inhibitor
T2 sequence (Q15831 1-433): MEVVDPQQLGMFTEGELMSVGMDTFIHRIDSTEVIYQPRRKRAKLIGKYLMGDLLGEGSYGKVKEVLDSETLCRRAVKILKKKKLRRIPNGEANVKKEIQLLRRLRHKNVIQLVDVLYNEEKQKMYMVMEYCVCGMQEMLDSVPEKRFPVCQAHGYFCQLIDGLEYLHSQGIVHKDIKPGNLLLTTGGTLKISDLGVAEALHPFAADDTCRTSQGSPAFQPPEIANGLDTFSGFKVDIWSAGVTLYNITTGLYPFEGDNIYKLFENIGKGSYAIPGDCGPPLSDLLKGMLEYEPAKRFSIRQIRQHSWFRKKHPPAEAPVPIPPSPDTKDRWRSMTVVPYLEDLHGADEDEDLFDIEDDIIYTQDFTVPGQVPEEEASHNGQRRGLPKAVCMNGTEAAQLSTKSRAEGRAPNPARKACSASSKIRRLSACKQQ
T2 sequence (Q7RTN6 1-431 partner): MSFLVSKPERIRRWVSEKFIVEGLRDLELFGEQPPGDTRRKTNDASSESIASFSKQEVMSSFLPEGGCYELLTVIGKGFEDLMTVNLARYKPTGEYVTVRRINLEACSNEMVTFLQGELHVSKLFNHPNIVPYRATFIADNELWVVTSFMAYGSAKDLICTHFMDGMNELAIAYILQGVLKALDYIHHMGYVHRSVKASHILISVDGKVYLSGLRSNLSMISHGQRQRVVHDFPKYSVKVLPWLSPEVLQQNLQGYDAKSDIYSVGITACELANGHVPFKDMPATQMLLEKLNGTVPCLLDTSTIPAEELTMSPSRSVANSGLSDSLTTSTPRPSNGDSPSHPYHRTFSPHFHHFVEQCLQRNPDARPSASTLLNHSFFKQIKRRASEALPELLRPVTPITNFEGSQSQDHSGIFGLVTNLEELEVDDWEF
T2 sequence (Q9Y376 1-341 partner): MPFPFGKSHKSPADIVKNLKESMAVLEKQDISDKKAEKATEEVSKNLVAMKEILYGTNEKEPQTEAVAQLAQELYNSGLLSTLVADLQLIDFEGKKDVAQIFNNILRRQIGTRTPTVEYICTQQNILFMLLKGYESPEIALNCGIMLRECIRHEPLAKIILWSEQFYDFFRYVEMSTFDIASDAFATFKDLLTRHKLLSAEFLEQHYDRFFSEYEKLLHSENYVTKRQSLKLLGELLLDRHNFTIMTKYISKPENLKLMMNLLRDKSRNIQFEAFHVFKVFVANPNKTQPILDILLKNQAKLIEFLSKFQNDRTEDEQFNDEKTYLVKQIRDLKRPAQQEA
Protocol: as §1

IKKβ = target: T3, IKKβ (Homo sapiens, UniProt O14920); conditions: 100 μM compound, 5 μM ATP; read-out: Kinase activity, % of activity in the absence of inhibitor
T3 sequence (O14920 1-756): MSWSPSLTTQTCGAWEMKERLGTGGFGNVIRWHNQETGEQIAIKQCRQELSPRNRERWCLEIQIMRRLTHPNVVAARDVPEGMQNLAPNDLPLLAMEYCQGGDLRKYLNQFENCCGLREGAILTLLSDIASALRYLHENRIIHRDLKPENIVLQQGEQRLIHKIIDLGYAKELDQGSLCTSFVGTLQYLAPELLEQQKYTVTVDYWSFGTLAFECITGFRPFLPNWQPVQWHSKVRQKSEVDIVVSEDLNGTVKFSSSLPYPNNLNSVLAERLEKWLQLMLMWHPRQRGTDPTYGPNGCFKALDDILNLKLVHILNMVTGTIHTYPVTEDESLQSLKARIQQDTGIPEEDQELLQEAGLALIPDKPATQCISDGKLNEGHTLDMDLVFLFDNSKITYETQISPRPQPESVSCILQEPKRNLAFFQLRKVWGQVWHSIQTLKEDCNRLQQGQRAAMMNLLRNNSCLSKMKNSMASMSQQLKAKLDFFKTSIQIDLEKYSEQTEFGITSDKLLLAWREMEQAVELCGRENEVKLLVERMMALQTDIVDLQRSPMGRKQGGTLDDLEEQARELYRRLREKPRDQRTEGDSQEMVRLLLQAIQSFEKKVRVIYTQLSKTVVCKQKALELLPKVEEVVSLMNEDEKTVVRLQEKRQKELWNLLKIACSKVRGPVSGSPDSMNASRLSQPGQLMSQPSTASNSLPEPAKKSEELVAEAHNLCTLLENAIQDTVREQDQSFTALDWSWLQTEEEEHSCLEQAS
Protocol: as §1

| SMILES | activity at 100 µM (PIM3) [%] | activity at 100 µM (NEK2α) [%] | activity at 100 µM (LKB1) [%] | activity at 100 µM (IKKβ) [%] |
| --- | --- | --- | --- | --- |
| Nc1ncnc2c1ncn2C1OC(COP(=O)(O)OP(=O)(O)O)C(O)C1O (stereo not drawn) [ADP] | 36.1 | 42.1 | 71 | 26.6 |
| CC(C)(COP(=O)(O)OP(=O)(O)OC[C@H]1O[C@@H](n2cnc3c(N)ncnc32)[C@H](O)[C@@H]1OP(=O)(O)O)[C@@H](O)C(=O)NCCC(=O)NCCS [CoA, Coenzyme A] | 122 | 148 | 103 | 90.5 |
| CC(C)(COP(=O)(O)OP(=O)(O)OCC1OC(n2cnc3c(N)ncnc32)C(O)C1O)C(O)C(=O)NCCC(=O)NCCS (stereo not drawn) [dpCoA, dephospho-CoA] | 96.7 | 100 | 81.1 | 48 |
